Calls of active or inactive are those of the source. No rule for the calls is given here.
Experiments:
Experiment in all cases: selectivity profiling over binding targets, CYP450 – biochemical, Ricerca HitProfilingScreen, selectivity assay for S1P3 agonist project, profiling panel (AID 540351)
[1] = target: 5-hydroxytryptamine receptor 2B (Homo sapiens) (UniProt P41595); details: Ricerca receptor/enzyme binding panel plus CYP450; Serotonin (5-Hydroxytryptamine) 5-HT2B; at 30 µM; active compounds read high
Adenosine A1 = details: Ricerca receptor/enzyme binding panel plus CYP450, at 30 µM, active compounds read high
Adenosine A2A = details: Ricerca receptor/enzyme binding panel plus CYP450, at 30 µM, active compounds read high
Adrenergic alpha1A = details: Ricerca receptor/enzyme binding panel plus CYP450, at 30 µM, active compounds read high
Adrenergic alpha1B = details: Ricerca receptor/enzyme binding panel plus CYP450, at 30 µM, active compounds read high
Adrenergic beta1 = details: Ricerca receptor/enzyme binding panel plus CYP450, at 30 µM, active compounds read high
[2] = target: Alpha-2A adrenergic receptor (Homo sapiens) (UniProt P08913); details: Ricerca receptor/enzyme binding panel plus CYP450; Adrenergic alpha2A; at 30 µM; active compounds read high
Chain of Alpha-2A adrenergic receptor (Homo sapiens) (P08913 whole entry, looked up): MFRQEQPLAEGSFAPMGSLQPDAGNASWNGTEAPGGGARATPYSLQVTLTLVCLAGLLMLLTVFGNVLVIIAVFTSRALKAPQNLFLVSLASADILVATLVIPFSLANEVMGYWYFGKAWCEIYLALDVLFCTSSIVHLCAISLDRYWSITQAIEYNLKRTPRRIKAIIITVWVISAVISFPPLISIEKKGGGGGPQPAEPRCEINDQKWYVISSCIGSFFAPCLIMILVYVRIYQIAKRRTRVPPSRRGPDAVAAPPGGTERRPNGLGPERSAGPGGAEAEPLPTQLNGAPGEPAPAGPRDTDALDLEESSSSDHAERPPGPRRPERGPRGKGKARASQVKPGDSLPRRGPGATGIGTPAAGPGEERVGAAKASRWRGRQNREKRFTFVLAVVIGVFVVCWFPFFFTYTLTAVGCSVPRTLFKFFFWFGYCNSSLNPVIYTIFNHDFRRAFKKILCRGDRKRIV

[3] = system: Alpha-2A adrenergic receptor (Homo sapiens) + Histamine H1 receptor (Homo sapiens) + Mu-type opioid receptor (Homo sapiens); details: Ricerca receptor/enzyme binding panel plus CYP450; at 30 µM; active compounds read high
[4] = target: Beta-2 adrenergic receptor (Homo sapiens) (UniProt P07550); details: Ricerca receptor/enzyme binding panel plus CYP450; Adrenergic beta2; at 30 µM; active compounds read high
Chain of Beta-2 adrenergic receptor (Homo sapiens) (P07550 whole entry, looked up): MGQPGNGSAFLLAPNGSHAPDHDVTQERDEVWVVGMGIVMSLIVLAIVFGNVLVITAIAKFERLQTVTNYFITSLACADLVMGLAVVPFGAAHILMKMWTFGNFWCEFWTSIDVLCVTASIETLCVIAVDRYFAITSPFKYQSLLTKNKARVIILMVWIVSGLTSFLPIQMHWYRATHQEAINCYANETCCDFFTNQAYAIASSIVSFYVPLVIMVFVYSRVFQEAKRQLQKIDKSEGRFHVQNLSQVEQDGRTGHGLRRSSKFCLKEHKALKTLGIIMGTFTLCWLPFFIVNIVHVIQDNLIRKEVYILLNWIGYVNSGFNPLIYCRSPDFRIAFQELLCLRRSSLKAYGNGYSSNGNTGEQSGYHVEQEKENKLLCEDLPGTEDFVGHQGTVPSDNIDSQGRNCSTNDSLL

CYP450, 2C19 = details: Ricerca receptor/enzyme binding panel plus CYP450, at 30 µM, active compounds read high
Calcium Channel L-Type = details: Ricerca receptor/enzyme binding panel plus CYP450, Dihydropyridine, at 30 µM, active compounds read high
Cannabinoid CB1 = details: Ricerca receptor/enzyme binding panel plus CYP450, at 30 µM, active compounds read high
[5] = target: Cytochrome P450 1A2 (Homo sapiens) (UniProt P05177); details: Ricerca receptor/enzyme binding panel plus CYP450; CYP450, 1A2; at 30 µM; active compounds read high
Chain of Cytochrome P450 1A2 (Homo sapiens) (P05177 whole entry, looked up): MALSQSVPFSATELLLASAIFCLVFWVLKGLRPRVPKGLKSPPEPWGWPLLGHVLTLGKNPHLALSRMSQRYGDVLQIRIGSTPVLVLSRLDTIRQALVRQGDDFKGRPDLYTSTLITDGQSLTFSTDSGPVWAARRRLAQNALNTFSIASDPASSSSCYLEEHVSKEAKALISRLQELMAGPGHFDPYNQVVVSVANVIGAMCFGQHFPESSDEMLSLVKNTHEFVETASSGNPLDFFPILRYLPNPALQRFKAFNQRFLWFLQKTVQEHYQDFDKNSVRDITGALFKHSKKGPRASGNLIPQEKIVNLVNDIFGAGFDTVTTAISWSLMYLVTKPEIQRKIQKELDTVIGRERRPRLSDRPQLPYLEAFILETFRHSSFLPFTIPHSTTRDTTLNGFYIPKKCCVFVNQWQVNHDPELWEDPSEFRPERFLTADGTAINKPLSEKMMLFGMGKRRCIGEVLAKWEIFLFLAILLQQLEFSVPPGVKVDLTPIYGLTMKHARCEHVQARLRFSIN

[6] = target: Cytochrome P450 2C9 (Homo sapiens) (UniProt P11712); details: Ricerca receptor/enzyme binding panel plus CYP450; CYP450, 2C9; at 30 µM; active compounds read high
[7] = target: Cytochrome P450 2D6 (Homo sapiens) (UniProt P10635); details: Ricerca receptor/enzyme binding panel plus CYP450; CYP450, 2D6; at 30 µM; active compounds read high
[8] = target: Cytochrome P450 3A4 (Homo sapiens) (UniProt P08684); details: Ricerca receptor/enzyme binding panel plus CYP450; CYP450, 3A4; at 30 µM; active compounds read high
Chain of Cytochrome P450 3A4 (Homo sapiens) (P08684 whole entry, looked up): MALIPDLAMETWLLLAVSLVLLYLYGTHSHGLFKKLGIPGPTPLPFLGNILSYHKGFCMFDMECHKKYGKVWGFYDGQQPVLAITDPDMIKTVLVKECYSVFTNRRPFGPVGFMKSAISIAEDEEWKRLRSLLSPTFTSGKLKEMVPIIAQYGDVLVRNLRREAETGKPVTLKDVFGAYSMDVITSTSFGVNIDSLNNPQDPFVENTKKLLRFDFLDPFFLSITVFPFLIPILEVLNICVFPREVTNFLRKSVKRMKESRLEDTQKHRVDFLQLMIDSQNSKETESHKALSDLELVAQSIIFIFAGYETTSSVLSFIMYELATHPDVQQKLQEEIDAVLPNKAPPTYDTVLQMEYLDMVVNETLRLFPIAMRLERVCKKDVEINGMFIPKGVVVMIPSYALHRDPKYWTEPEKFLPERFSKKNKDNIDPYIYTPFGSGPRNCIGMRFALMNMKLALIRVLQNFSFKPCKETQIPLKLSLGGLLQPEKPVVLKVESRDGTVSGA

[9] = target: D(1A) dopamine receptor (Homo sapiens) (UniProt P21728); details: Ricerca receptor/enzyme binding panel plus CYP450; Dopamine D1; at 30 µM; active compounds read high
Chain of D(1A) dopamine receptor (Homo sapiens) (P21728 whole entry, looked up): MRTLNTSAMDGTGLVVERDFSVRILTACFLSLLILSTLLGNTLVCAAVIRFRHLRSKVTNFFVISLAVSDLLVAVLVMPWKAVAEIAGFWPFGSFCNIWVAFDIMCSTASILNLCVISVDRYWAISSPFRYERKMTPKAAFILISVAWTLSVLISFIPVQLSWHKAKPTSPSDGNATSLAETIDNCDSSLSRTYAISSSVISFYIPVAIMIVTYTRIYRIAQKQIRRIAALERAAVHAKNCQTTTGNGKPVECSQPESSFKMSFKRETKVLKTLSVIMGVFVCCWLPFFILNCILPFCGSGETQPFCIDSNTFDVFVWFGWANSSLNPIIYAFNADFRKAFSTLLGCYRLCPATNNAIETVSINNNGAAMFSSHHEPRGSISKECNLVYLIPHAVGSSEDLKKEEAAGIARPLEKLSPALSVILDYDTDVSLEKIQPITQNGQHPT

Dopamine D2 = details: Ricerca receptor/enzyme binding panel plus CYP450, at 30 µM, active compounds read high
GABAA = details: Central, at 30 µM, active compounds read high
Glutamate NMDA = details: Ricerca receptor/enzyme binding panel plus CYP450, Phencyclidine, at 30 µM, active compounds read high
Histamine H1 = details: Ricerca receptor/enzyme binding panel plus CYP450, at 30 µM, active compounds read high
[10] = target: Muscarinic acetylcholine receptor M2 (Homo sapiens) (UniProt P08172); details: Ricerca receptor/enzyme binding panel plus CYP450, at 30 µM, active compounds read high
Chain of Muscarinic acetylcholine receptor M2 (Homo sapiens) (P08172 whole entry, looked up): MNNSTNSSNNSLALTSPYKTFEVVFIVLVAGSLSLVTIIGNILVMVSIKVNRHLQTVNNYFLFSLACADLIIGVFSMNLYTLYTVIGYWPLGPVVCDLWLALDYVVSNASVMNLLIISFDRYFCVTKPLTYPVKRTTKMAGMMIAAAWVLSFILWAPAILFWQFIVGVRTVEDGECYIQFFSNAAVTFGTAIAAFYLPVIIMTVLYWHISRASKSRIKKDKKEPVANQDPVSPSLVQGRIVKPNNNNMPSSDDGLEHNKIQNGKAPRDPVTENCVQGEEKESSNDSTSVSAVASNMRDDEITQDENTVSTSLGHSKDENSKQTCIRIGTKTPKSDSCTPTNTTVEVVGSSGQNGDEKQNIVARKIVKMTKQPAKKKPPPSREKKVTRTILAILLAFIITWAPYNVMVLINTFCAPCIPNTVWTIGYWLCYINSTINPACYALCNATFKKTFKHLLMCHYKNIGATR

[11] = target: Muscarinic acetylcholine receptor M3 (Homo sapiens) (UniProt P20309); details: Ricerca receptor/enzyme binding panel plus CYP450, at 30 µM, active compounds read high
Chain of Muscarinic acetylcholine receptor M3 (Homo sapiens) (P20309 whole entry, looked up): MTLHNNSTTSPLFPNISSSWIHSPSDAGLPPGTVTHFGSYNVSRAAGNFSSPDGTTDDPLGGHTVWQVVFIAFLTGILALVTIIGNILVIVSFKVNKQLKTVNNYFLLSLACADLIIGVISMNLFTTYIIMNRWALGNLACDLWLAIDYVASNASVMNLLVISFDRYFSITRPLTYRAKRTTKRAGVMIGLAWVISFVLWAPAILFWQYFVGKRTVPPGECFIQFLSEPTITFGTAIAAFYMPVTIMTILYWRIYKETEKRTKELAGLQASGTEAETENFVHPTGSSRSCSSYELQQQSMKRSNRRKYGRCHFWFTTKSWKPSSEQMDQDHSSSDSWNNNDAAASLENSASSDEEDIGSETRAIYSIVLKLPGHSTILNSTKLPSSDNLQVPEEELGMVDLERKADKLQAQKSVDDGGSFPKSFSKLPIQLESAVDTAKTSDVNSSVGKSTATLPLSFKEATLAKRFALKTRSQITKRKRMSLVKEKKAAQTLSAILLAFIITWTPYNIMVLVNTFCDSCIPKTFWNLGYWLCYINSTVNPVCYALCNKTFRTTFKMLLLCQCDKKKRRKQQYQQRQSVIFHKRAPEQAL

Nicotinic Acetylcholine = details: Ricerca receptor/enzyme binding panel plus CYP450, at 30 µM, active compounds read high
Opiate mu (OP3, MOP) = details: Ricerca receptor/enzyme binding panel plus CYP450, at 30 µM, active compounds read high
Prostanoid EP4 = details: Ricerca receptor/enzyme binding panel plus CYP450, at 30 µM, active compounds read high
Sigma 1 = details: Ricerca receptor/enzyme binding panel plus CYP450, at 30 µM, active compounds read high
Sodium Channel, Site 2 = details: Ricerca receptor/enzyme binding panel plus CYP450, at 30 µM, active compounds read high
[12] = system: Transporter, Norepinephrine (NET); details: Ricerca receptor/enzyme binding panel plus CYP450, at 30 µM, active compounds read high
[13] = target: Voltage-gated inwardly rectifying potassium channel KCNH2 (Homo sapiens) (UniProt Q12809); details: Ricerca receptor/enzyme binding panel plus CYP450; Potassium Channel hERG; at 30 µM; active compounds read high
Chain of Voltage-gated inwardly rectifying potassium channel KCNH2 (Homo sapiens) (Q12809 whole entry, looked up): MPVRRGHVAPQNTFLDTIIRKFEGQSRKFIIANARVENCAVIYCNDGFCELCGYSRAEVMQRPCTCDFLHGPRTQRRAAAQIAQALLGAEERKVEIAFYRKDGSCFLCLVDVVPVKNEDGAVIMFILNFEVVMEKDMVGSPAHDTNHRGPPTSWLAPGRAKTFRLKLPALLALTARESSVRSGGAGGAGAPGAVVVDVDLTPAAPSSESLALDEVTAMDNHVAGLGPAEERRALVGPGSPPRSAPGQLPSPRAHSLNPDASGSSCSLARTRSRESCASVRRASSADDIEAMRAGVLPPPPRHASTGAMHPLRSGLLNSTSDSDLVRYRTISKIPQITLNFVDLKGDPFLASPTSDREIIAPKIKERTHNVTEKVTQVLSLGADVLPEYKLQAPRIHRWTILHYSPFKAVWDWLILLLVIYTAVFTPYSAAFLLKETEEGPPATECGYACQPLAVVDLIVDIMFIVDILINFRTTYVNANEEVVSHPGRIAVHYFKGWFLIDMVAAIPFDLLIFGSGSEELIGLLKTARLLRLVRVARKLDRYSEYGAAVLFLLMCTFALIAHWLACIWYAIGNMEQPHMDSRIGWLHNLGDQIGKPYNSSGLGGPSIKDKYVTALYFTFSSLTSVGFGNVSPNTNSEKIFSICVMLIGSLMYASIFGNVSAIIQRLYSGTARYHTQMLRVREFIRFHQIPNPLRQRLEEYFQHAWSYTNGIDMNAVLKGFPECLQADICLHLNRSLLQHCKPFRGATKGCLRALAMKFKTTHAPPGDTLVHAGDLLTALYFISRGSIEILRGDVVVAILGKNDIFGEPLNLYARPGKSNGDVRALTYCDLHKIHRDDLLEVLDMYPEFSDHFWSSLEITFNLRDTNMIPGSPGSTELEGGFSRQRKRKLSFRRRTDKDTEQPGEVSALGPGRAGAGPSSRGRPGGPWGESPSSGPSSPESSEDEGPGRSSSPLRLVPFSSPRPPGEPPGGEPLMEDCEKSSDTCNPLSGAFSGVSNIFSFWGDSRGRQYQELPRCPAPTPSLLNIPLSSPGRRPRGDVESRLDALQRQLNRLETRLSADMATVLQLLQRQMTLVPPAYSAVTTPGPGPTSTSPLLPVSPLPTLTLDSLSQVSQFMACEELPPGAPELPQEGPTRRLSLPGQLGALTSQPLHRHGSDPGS

Measured: inhibition

O=C(c1cc(C2CC2)on1)N(C1CCCCC1)C1CCCCC1
active: CYP450, 2C19 68% | Cannabinoid CB1 58% | [8] 74% | Histamine H1 51% | Nicotinic Acetylcholine -50% | Sodium Channel, Site 2 59% | [12] 52%
inactive: [1] 20% | Adenosine A1 38% | Adenosine A2A 5% | Adrenergic alpha1A 21% | Adrenergic alpha1B 13% | Adrenergic beta1 45% | [2] 34% | [3] -2% | [4] -1% | Calcium Channel L-Type 28% | [5] 0% | [6] 24% | [7] -26% | [9] 21% | Dopamine D2 -1% | GABAA; Ricerca receptor/enzyme binding panel plus CYP450, Flunitrazepam 1% | GABAA; Ricerca receptor/enzyme binding panel plus CYP450, Muscimol -2% | Glutamate NMDA 1% | [10] -1% | [11] 47% | Opiate mu (OP3, MOP) 38% | Prostanoid EP4 32% | Sigma 1 16% | [13] 42%
